This assay has as its target Neuraminidase (Influenza A virus (A/Puerto Rico/8/1934(H1N1)), UniProt P03468, H274Y). Also noted: species or system Influenza A virus (A/California/04/2009(H1N1)).

One compound from ChEMBL document CHEMBL4251557 (Eur J Med Chem, 2017) can be followed below.

The structures appear in SMILES notation.

In turn, `CCC(CC)O[C@@H]1C=C(C(=O)O)C[C@H](NC(C)=O)[C@H]1NC(C)=O` gave an IC50 of 1380 nM.
